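Tested at 5 concentrations; 48 h exposure; 96-well plates; endpoints linearly interpolated, else capped at highest concentration. GI50 is the concentration that inhibits growth by half. At the TGI there is no net growth.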

One assay has as its system SN12C renal. The assay is described as follows: NCI anticancer screen, dose series, 48 h.
`O=C1c2ccccc2-c2nc(-c3cccc([N+](=O)[O-])c3)nnc21` yielded a TGI of 45.7 µM.

Molecule `CNC(=O)Oc1ccc(-c2cn3cc(OC(=O)NC)ccc3n2)cc1` registered a TGI greater than 100 µM.

Take `CC(=O)N1N=C(c2ccc3ccccc3c2O)CC1C(=O)c1ccco1` (stereo unspecified): the TGI is greater than 100 µM.

The molecule `N#Cc1nc(-c2cccs2)oc1N` displayed a TGI greater than 100 µM.

`O=c1c2c([N+](=O)[O-])cccc2nc2[nH]c3ccccc3n12` registered a TGI greater than 75 µM.

As for `Cc1cc(C)cc(Nc2cc(=O)[nH]c(=O)[nH]2)c1`, the TGI is greater than 100 µM.

On to `O=c1[nH]/c(=C/c2ccc(OCc3ccccc3)cn2)c(=O)[nH]/c1=C/c1ccc(O)cc1`, for which the TGI is 8.9 µM.

`N#C/C(=C\n1ccc(=O)[nH]c1=S)C(N)=O` gave a TGI greater than 100 µM.

Turning to `Nn1c(CCCCCCCCc2nnc(COc3ccc(Cl)cc3)n2N)nnc1COc1ccc(Cl)cc1`, the TGI was greater than 100 µM.

In the case of `O=C(OCC1OC2OC(c3ccccc3)(n3ccc4c([N+](=O)[O-])ccnc43)OC2C1OC(=O)c1ccccc1)c1ccccc1` (stereo unspecified), the TGI is greater than 100 µM.

On to `Cc1[nH]c(=O)[nH]c(=O)c1/C=C/C(=O)O`, for which the TGI is greater than 1000 µM.

`OCC1OC(n2cnc3c(Cl)nc(Nc4ccccc4)nc32)CC1O` (stereo unspecified) came in with a TGI greater than 100 µM.

In the case of `C[C@]12CCc3nc(Nc4ccccc4)sc3C1=CC[C@@H]1[C@@H]2CC[C@]2(C)/C(=N/NC(N)=S)CC[C@@H]12`, the GI50 is 3.52 µM and the TGI was greater than 100 µM.

In the case of `O=C1CCCCC(=O)OC2(CCCCC2=O)CC1` (stereo unspecified), the TGI was greater than 100 µM.

The molecule `CC1=NN(c2ccc(S(=O)(=O)O)cc2)C2(C1)SCC(=O)N2c1nc2ccccc2s1` (stereo unspecified) gave a TGI greater than 100 µM.

In turn, `Nc1ccc2[nH]c3c(-c4ccccc4)nccc3c2c1` gave a TGI greater than 100 µM.

Molecule `Cc1ccc2nc(Cl)c(/C=N/N3C(=O)/C(=C/c4ccccc4S)N=C3c3ccccc3)cc2c1` returned a TGI greater than 100 µM.

Regarding `CCOP(=O)(OCC)c1c(C(=O)OC)cc(=O)[nH]c1-c1ccc(C)cc1`, the TGI was greater than 57 µM.

Molecule `COC(=O)C1=C(C(=O)OC)SC2(S1)C1=C(CCCC1)SC(C(=O)OC)=C2C(=O)OC` yielded a TGI of 14.6 µM.

For the molecule `Cc1cn(C2CC(n3cc(Cn4cc(Br)c(=O)[nH]c4=O)nn3)C(CO)O2)c(=O)[nH]c1=O` (stereo unspecified), the TGI was greater than 100 µM.

`Cc1cn(C(Cc2ccccc2)OCCO)c(=O)[nH]c1=O` (stereo unspecified) registered a TGI greater than 100 µM.

The subject of another assay is MCF7 breast. The assay is described as follows: NCI anticancer screen, dose series, 48 h.
For the molecule `CCC1(C(=O)OC(C)(C)C)OC12C(C)CCCC2C` (stereo unspecified), the TGI came to 51.4 µM.

`Cc1ccc(-c2cc(N)n(-c3nc4c(c(=O)n(C)c(=O)n4C)n3C)n2)cc1` showed a TGI greater than 100 µM.

For `O=C(NC(Cc1ccc(I)cc1)C(=O)O)c1ccc(Br)cc1` (stereo unspecified), the TGI was greater than 100 µM.

Take `CC1CCOc2ccc(cc2)C=Nc2ccc(cc2)CCc2ccc(cc2)N=Cc2ccc(cc2)OCC1` (stereo unspecified): the TGI is greater than 100 µM.

Molecule `COC(=O)[C@H](Cc1ccccc1)NC(=O)[C@H](Cc1ccccc1)NC(=O)[C@@H]1CCCN1C(=O)N[C@H]1C2C=CC(C2)C1C(=O)N1CCC[C@H]1C(=O)N[C@@H](C)C(=O)N[C@H](C(=O)OC)C(C)C` (stereo partly specified) displayed a TGI greater than 100 µM.

With `O=C1c2ccccc2-c2nc(-c3cccc([N+](=O)[O-])c3)nnc21`, the TGI was greater than 100 µM.

On to `CNC(=O)Oc1ccc(-c2cn3cc(OC(=O)NC)ccc3n2)cc1`, for which the TGI is greater than 100 µM.

Molecule `CC(=O)N1N=C(c2ccc3ccccc3c2O)CC1C(=O)c1ccco1` (stereo unspecified) gave a TGI greater than 100 µM.

In turn, `N#Cc1nc(-c2cccs2)oc1N` gave a TGI greater than 100 µM.

Molecule `O=c1c2c([N+](=O)[O-])cccc2nc2[nH]c3ccccc3n12` had a TGI greater than 75 µM.

`Cc1cc(C)cc(Nc2cc(=O)[nH]c(=O)[nH]2)c1` yielded a TGI greater than 100 µM.

`O=c1[nH]/c(=C/c2ccc(OCc3ccccc3)cn2)c(=O)[nH]/c1=C/c1ccc(O)cc1`: the TGI is greater than 100 µM.

In the case of `N#C/C(=C\n1ccc(=O)[nH]c1=S)C(N)=O`, the TGI is greater than 100 µM.

`Nn1c(CCCCCCCCc2nnc(COc3ccc(Cl)cc3)n2N)nnc1COc1ccc(Cl)cc1` showed a TGI greater than 100 µM.

As for `O=C(OCC1OC2OC(c3ccccc3)(n3ccc4c([N+](=O)[O-])ccnc43)OC2C1OC(=O)c1ccccc1)c1ccccc1` (stereo unspecified), the TGI is greater than 100 µM.

As to `Cc1[nH]c(=O)[nH]c(=O)c1/C=C/C(=O)O`, the TGI is greater than 1000 µM.

The molecule `OCC1OC(n2cnc3c(Cl)nc(Nc4ccccc4)nc32)CC1O` (stereo unspecified) displayed a TGI greater than 100 µM.

Regarding `C[C@]12CCc3nc(Nc4ccccc4)sc3C1=CC[C@@H]1[C@@H]2CC[C@]2(C)/C(=N/NC(N)=S)CC[C@@H]12`, the GI50 is 1.08 µM and the TGI is greater than 100 µM.

`CN(NC(=O)c1cccs1)C1=NCCCN1`: the TGI was greater than 100 µM.

With `O=C1CCCCC(=O)OC2(CCCCC2=O)CC1` (stereo unspecified), the TGI is greater than 100 µM.

Consider `CC1=NN(c2ccc(S(=O)(=O)O)cc2)C2(C1)SCC(=O)N2c1nc2ccccc2s1` (stereo unspecified), for which the TGI was greater than 100 µM.

Molecule `Nc1ccc2[nH]c3c(-c4ccccc4)nccc3c2c1` gave a TGI greater than 100 µM.

The molecule `Cc1ccc2nc(Cl)c(/C=N/N3C(=O)/C(=C/c4ccccc4S)N=C3c3ccccc3)cc2c1` gave a TGI greater than 100 µM.

In turn, `CCOP(=O)(OCC)c1c(C(=O)OC)cc(=O)[nH]c1-c1ccc(C)cc1` gave a TGI greater than 49.7 µM.

The molecule `COC(=O)C1=C(C(=O)OC)SC2(S1)C1=C(CCCC1)SC(C(=O)OC)=C2C(=O)OC` had a TGI of 8.43 µM.

In the case of `Cc1cn(C2CC(n3cc(Cn4cc(Br)c(=O)[nH]c4=O)nn3)C(CO)O2)c(=O)[nH]c1=O` (stereo unspecified), the TGI was greater than 100 µM.

As for `CC1Cn2c(nc3ccccc32)NC1=O` (stereo unspecified), the TGI is greater than 100 µM.

On to `Cc1cn(C(Cc2ccccc2)OCCO)c(=O)[nH]c1=O` (stereo unspecified), for which the TGI is greater than 100 µM.

For another assay, the system named is M14 melanoma. The assay is described as follows: NCI anticancer screen, dose series, 48 h.
For the molecule `CCC1(C(=O)OC(C)(C)C)OC12C(C)CCCC2C` (stereo unspecified), the TGI was greater than 100 µM.

Take `Cc1ccc(-c2cc(N)n(-c3nc4c(c(=O)n(C)c(=O)n4C)n3C)n2)cc1`: the TGI is greater than 100 µM.

Molecule `CC1CCOc2ccc(cc2)C=Nc2ccc(cc2)CCc2ccc(cc2)N=Cc2ccc(cc2)OCC1` (stereo unspecified) came in with a TGI greater than 100 µM.

For `COC(=O)[C@H](Cc1ccccc1)NC(=O)[C@H](Cc1ccccc1)NC(=O)[C@@H]1CCCN1C(=O)N[C@H]1C2C=CC(C2)C1C(=O)N1CCC[C@H]1C(=O)N[C@@H](C)C(=O)N[C@H](C(=O)OC)C(C)C` (stereo partly specified), the TGI was greater than 100 µM.

Take `O=C1c2ccccc2-c2nc(-c3cccc([N+](=O)[O-])c3)nnc21`: the TGI was found to be 73.2 µM.

In turn, `CNC(=O)Oc1ccc(-c2cn3cc(OC(=O)NC)ccc3n2)cc1` registered a TGI greater than 100 µM.

The molecule `CC(=O)N1N=C(c2ccc3ccccc3c2O)CC1C(=O)c1ccco1` (stereo unspecified) gave a TGI of 57.7 µM.

As to `N#Cc1nc(-c2cccs2)oc1N`, the TGI is greater than 100 µM.

For the molecule `O=c1c2c([N+](=O)[O-])cccc2nc2[nH]c3ccccc3n12`, the TGI was greater than 75 µM.

Molecule `Cc1cc(C)cc(Nc2cc(=O)[nH]c(=O)[nH]2)c1` returned a TGI greater than 100 µM.

Consider `O=c1[nH]/c(=C/c2ccc(OCc3ccccc3)cn2)c(=O)[nH]/c1=C/c1ccc(O)cc1`, for which the TGI was found to be 3.78 µM.

With `N#C/C(=C\n1ccc(=O)[nH]c1=S)C(N)=O`, the TGI was greater than 100 µM.

In turn, `Nn1c(CCCCCCCCc2nnc(COc3ccc(Cl)cc3)n2N)nnc1COc1ccc(Cl)cc1` displayed a TGI greater than 100 µM.

`O=C(OCC1OC2OC(c3ccccc3)(n3ccc4c([N+](=O)[O-])ccnc43)OC2C1OC(=O)c1ccccc1)c1ccccc1` (stereo unspecified) returned a TGI greater than 100 µM.

`OCC1OC(n2cnc3c(Cl)nc(Nc4ccccc4)nc32)CC1O` (stereo unspecified) showed a TGI greater than 100 µM.

The record behind these values is PubChem BioAssay (NCI).
